Data taken from US20170298402A1, “SELF-LABELING NUCLEIC ACIDS AND METHODS OF USE” (President and Fellows of Harvard College, priority 2014, published 2017).

Test system: post-round 6 RNA pool
Test: Streptavidin gel mobility shift of post-round 6 RNA pool with each electrophilic probe
Format: biochemical
Conditions: streptavidin incubation and gel mobility shift
Experimental: The reaction between small-molecule probe(s) and the RNA pool was performed as follows: the RNA pool (1 μM) in buffer containing 150 mM NaCl, 25 mM Na-HEPES, pH 7.4, was heated at 65° C. for 5 minutes, then allowed to cool for an additional 5 minutes. MgCl2 (10 mM) was then added for a total volume of 45 μL and the solution incubated for 10 minutes, followed by addition of 1.3 mM of the biotinylated small-molecule probe in DMSO. After incubation for the desired time, the RNA was precipitated by the addition of 5 μL of 3 M NaOAc and 180 μL of EtOH.
The pellet resulting from EtOH precipitation of a reaction of RNA (750 ng) with a small-molecule probe was resuspended in 21 μL H2O. The RNA (7 μL) and streptavidin (NEB; 1 μg) were incubated at room temperature for 25 minutes and then combined with gel electrophoresis loading buffer. The sample was electrophoresed on a 10% PAGE denaturing gel (240 V, 35 minutes) and visualized following incubation with SYBR Green II (Life Technologies).
To identify the electrophile(s) that reacted with the enriched RNA, we performed one additional round of in vitro selection and then incubated the resulting post-round 6 RNA pool with each of the eight electrophilic probes.

CC1O[C@H]1CCCOCCOC(=O)CCCCC1SCC2NC(=O)NC21 (stereo partly shown) [probe 1]
reaction with the post-round 6 RNA pool: reacted
